The text below walks through data of US10208152B2, “Poly(ethylene glycol)-b-poly(halomethylstyrene), derivative thereof, and method for producing same” (priority 2014, dated 2019).

This data set has as its system acetaminophen-induced hepatotoxicity. Conditions: for Prothrombin time (indicator of hepatic function): FIG. 17. As to the method:
Group 1: Untreated control (4 mice in this group only)
Group 2: 3 mg/kg of acetaminophen administered orally on the 7th day from the start of the test
Group 3: 1 mL of the blank micelles (6.25 mg/mL, 160 mg/kg) synthesized in Example 21 forcibly administered once per day via a feeding tube, 3 m g/kg of acetaminophen administered orally on the 7th day from the start of the test.
Group 5: 170 mg/kg of 4-amino-TEMPO forcibly administered once per day via a feeding tube, 3 mg/kg of acetaminophen administered orally on the 7th day from the start of the test.
Group 6: 600 mg/kg of acetylcysteine forcibly administered once per day via a feeding tube, 3 mg/kg of acetaminophen administered orally on the 7th day from the start of the test.

Setting [1] is: 6 mice before test, substance once per day by feeding tube (newRNP^N Example 16, m=13, 160 mg/kg; 4-amino-TEMPO 170 mg/kg; acetylcysteine 600 mg/kg), 3 mg/kg acetaminophen orally on 7th day.
[2] abbreviates: oral once per day, 3 mg/kg acetaminophen on 7th day, newRNP^N m=13.

Like-named read-outs stand apart in the source and are kept apart here.

Regarding `CC1(C)CC(N)CC(C)(C)N1[O]` [4-amino-TEMPO], the “Numbers of mice alive, After test” value under setting [1] was 2. For the same compound, the “Prothrombin time (indicator of hepatic function)” value under setting [2] is on record as “extended”. In addition, the “Toxicity by albumin quantity and AST, ALT and ALP enzyme levels” value (oral once per day, 3 mg/kg acetaminophen on 7th day, newRNP^N m=13, FIGS. 19 to 22) was “extremely high toxicity”.

`CC(=O)Nc1ccc(O)cc1` [acetaminophen]: the “Numbers of mice alive, After test” value (IGS, mouse, in vivo, po, 3 mg/kg, 1 day) turned out to be 2. Also, for the setting “acetaminophen alone, 3 mg/kg orally (group 2)”, the “Share of mice that died within 1 day” value was “two thirds”. Further, the “Superoxide dismutase (SOD) production” value (oral once per day, 3 mg/kg acetaminophen on 7th day, newRNP^N m=13, FIG. 18) is on record as “significant decrease”.

As to `CC(=O)N[C@@H](CS)C(=O)O` [acetylcysteine], under setting [1], the “Numbers of mice alive, After test” value is 4. Further, the “Prothrombin time (indicator of hepatic function)” value under setting [2] is on record as “extended”.
